# Measured values as given in patent publication US20120316199A1, “COMPOSITIONS AND METHODS FOR TREATING, CONTROLLING, REDUCING, OR AMELIORATING INFLAMMATORY PAIN” (priority 2011, published 2012).
# Key:
# [1] = test system: intraocular pressure (IOP); experiment: Intraocular pressure in New Zealand White rabbits, topical dosing four times daily; type: in vivo; settings: untreated left eyes
# Procedure: On Days 1-31, animals received daily topical doses of the appropriate test article into the right eye. Animals were dosed four times per day, with doses administered 2 hours apart. Doses were administered using a calibrated 50-μL pipette. The eyelids were held close for 10 seconds immediately following dosing. The time of each dose administration was recorded.
# Intraocular pressure (“IOP”) was determined for both eyes of each animal on Days 3, 5, 10, 12, 16, 18, 22, 24, 26, 30, and 32. IOP was evaluated with a Medtronic Solan, Model 30 classic pneumatonometer. Proparacaine hydrochloride 0.5% (1 drop) was delivered to each eye prior to IOP measurement. IOP was measured on Monday. Wednesday, and Friday of each week. A two-point diurnal curve was established: IOP was recorded at 8 a.m. and 12 p.m. on Day 3, and at 8 a.m. and 2 p.m. on later days, with a ±1 hour range for each of these times. The time of the measurements was recorded.
# Descriptive statistics were prepared for IOP data of each treatment group (left and right eyes separately) at each measurement interval. The statistics included the number of observations (“N”) mean, standard deviation (“STD”), and standard error (“SEM”). Statistical analyses were conducted on IOP results using Statistical Analysis Systems (SAS Institute. Inc., Cary, N.C. V8.0). Parameters were evaluated using analysis of variance/GLM Procedure followed by Tukey's Standardized Range Test (Tukey, 1985) for post hoc comparisons of group means. The level of significance was set at a probability of p<0.05 for all statistical procedures. Group IOP means were compared at each interval, with left and right eyes compared separately.
# [2] = test system: PGE2 release by IL-1β-induced human conjunctival fibroblasts (HConF); experiment: IL-1β-induced PGE2 release in human conjunctival fibroblasts (ELISA); type: cell-based; settings: 3, 10, 30, 100, 300, 1000 nM, 18 hours; ELISA (FIG. 6)
# Procedure: Human conjunctival fibroblasts (HConF) were seeded in 24-well plates in complete Fibroblast Medium (FM) which contained 2% fetal bovine serum (FBS) and Fibroblast Growth Supplement (FGS). After reaching confluence (about 95%), cells were conditioned in basic FM that had been supplemented with 0.5% charcoal-dextran treated fetal bovine serum (CD-FBS) and without Fibroblast Growth Supplement (FGS) for 24 hours. […] Plates were performed in triplicate. Culture media were evaluated for PGE, release by ELISA.
smiles,measurement,setting,value
"Cc1ccc2c(NC[C@](O)(CC(C)(C)c3cc(F)cc4c3OCC4)C(F)(F)F)cccc2n1 [BOL-303242-X, mapracorat]","Intraocular Pressure, MEAN","[1]; A.M. readings, Day 16, 5 mg/g (Group C)",23.4 mmHg
same,"Intraocular Pressure, MEAN","[1]; A.M. readings, Day 16, 10 mg/g (Group B)",22.9 mmHg
same,"Intraocular Pressure, MEAN","[1]; A.M. readings, Day 18, 1 mg/g (Group D)",23.3 mmHg
same,"Intraocular Pressure, MEAN","[1]; A.M. readings, Day 18, 5 mg/g (Group C)",21.9 mmHg
same,"Intraocular Pressure, MEAN","[1]; A.M. readings, Day 18, 10 mg/g (Group B)",21.2 mmHg
same,"Intraocular Pressure, MEAN","[1]; A.M. readings, Day 22, 1 mg/g (Group D)",22.4 mmHg
same,"Intraocular Pressure, MEAN","[1]; A.M. readings, Day 22, 5 mg/g (Group C)",21.6 mmHg
same,"Intraocular Pressure, MEAN","[1]; A.M. readings, Day 22, 10 mg/g (Group B)",21.8 mmHg
same,"Intraocular Pressure, MEAN","[1]; A.M. readings, Day 24, 1 mg/g (Group D)",22.4 mmHg
same,"Intraocular Pressure, MEAN","[1]; A.M. readings, Day 24, 5 mg/g (Group C)",22.1 mmHg
same,"Intraocular Pressure, MEAN","[1]; A.M. readings, Day 24, 10 mg/g (Group B)",20.2 mmHg
same,"Intraocular Pressure, MEAN","[1]; A.M. readings, Day 26, 1 mg/g (Group D)",22.9 mmHg
same,"Intraocular Pressure, MEAN","[1]; A.M. readings, Day 26, 5 mg/g (Group C)",21.7 mmHg
same,"Intraocular Pressure, MEAN","[1]; A.M. readings, Day 26, 10 mg/g (Group B)",21.7 mmHg
same,"Intraocular Pressure, MEAN","[1]; A.M. readings, Day 30, 1 mg/g (Group D)",23.4 mmHg
same,"Intraocular Pressure, MEAN","[1]; A.M. readings, Day 30, 5 mg/g (Group C)",22.6 mmHg
same,"Intraocular Pressure, MEAN","[1]; A.M. readings, Day 30, 10 mg/g (Group B)",22.7 mmHg
same,"Intraocular Pressure, MEAN","[1]; A.M. readings, Day 32, 1 mg/g (Group D)",24.1 mmHg
same,"Intraocular Pressure, MEAN","[1]; A.M. readings, Day 32, 5 mg/g (Group C)",23.1 mmHg
same,"Intraocular Pressure, MEAN","[1]; A.M. readings, Day 32, 10 mg/g (Group B)",22.9 mmHg
same,"Intraocular Pressure, MEAN","[1]; A.M. readings, Pre-Study, 1 mg/g (Group D)",23.9 mmHg
same,"Intraocular Pressure, MEAN","[1]; A.M. readings, Pre-Study, 5 mg/g (Group C)",24.2 mmHg
same,"Intraocular Pressure, MEAN","[1]; A.M. readings, Pre-Study, 10 mg/g (Group B)",23.8 mmHg
same,"Intraocular Pressure, MEAN","[1]; P.M. readings, Day 3, 1 mg/g (Group D)",25.0 mmHg
same,"Intraocular Pressure, MEAN","[1]; P.M. readings, Day 3, 5 mg/g (Group C)",23.9 mmHg
same,"Intraocular Pressure, MEAN","[1]; P.M. readings, Day 3, 10 mg/g (Group B)",23.3 mmHg
same,"Intraocular Pressure, MEAN","[1]; P.M. readings, Day 5, 1 mg/g (Group D)",24.7 mmHg
same,"Intraocular Pressure, MEAN","[1]; P.M. readings, Day 5, 5 mg/g (Group C)",24.8 mmHg
same,"Intraocular Pressure, MEAN","[1]; P.M. readings, Day 5, 10 mg/g (Group B)",25.2 mmHg
same,"Intraocular Pressure, MEAN","[1]; P.M. readings, Day 10, 1 mg/g (Group D)",24.9 mmHg
same,"Intraocular Pressure, MEAN","[1]; P.M. readings, Day 10, 5 mg/g (Group C)",24.6 mmHg
same,"Intraocular Pressure, MEAN","[1]; P.M. readings, Day 10, 10 mg/g (Group B)",23.5 mmHg
same,"Intraocular Pressure, MEAN","[1]; P.M. readings, Day 12, 1 mg/g (Group D)",23.7 mmHg
same,"Intraocular Pressure, MEAN","[1]; P.M. readings, Day 12, 5 mg/g (Group C)",23.3 mmHg
same,"Intraocular Pressure, MEAN","[1]; P.M. readings, Day 12, 10 mg/g (Group B)",24.1 mmHg
same,"Intraocular Pressure, MEAN","[1]; P.M. readings, Day 16, 1 mg/g (Group D)",21.9 mmHg
same,"Intraocular Pressure, MEAN","[1]; P.M. readings, Day 16, 5 mg/g (Group C)",20.4 mmHg
same,"Intraocular Pressure, MEAN","[1]; P.M. readings, Day 16, 10 mg/g (Group B)",21.4 mmHg
same,"Intraocular Pressure, MEAN","[1]; P.M. readings, Day 18, 1 mg/g (Group D)",22.7 mmHg
same,"Intraocular Pressure, MEAN","[1]; P.M. readings, Day 18, 5 mg/g (Group C)",21.9 mmHg
same,"Intraocular Pressure, MEAN","[1]; P.M. readings, Day 18, 10 mg/g (Group B)",22.1 mmHg
same,"Intraocular Pressure, MEAN","[1]; P.M. readings, Day 22, 1 mg/g (Group D)",22.1 mmHg
same,"Intraocular Pressure, MEAN","[1]; P.M. readings, Day 22, 5 mg/g (Group C)",22.1 mmHg
same,"Intraocular Pressure, MEAN","[1]; P.M. readings, Day 22, 10 mg/g (Group B)",22.6 mmHg
same,"Intraocular Pressure, MEAN","[1]; P.M. readings, Day 24, 1 mg/g (Group D)",22.9 mmHg
same,"Intraocular Pressure, MEAN","[1]; P.M. readings, Day 24, 5 mg/g (Group C)",22.2 mmHg
same,"Intraocular Pressure, MEAN","[1]; P.M. readings, Day 24, 10 mg/g (Group B)",22.8 mmHg
same,"Intraocular Pressure, MEAN","[1]; P.M. readings, Day 26, 1 mg/g (Group D)",22.1 mmHg
same,"Intraocular Pressure, MEAN","[1]; P.M. readings, Day 26, 5 mg/g (Group C)",22.3 mmHg
same,"Intraocular Pressure, MEAN","[1]; P.M. readings, Day 26, 10 mg/g (Group B)",21.4 mmHg
same,"Intraocular Pressure, MEAN","[1]; P.M. readings, Day 30, 10 mg/g (Group B)",21.7 mmHg
same,Inhibition of PGE2 production by IL-1β-induced HConF,[2],successfully inhibits
